Laboratory results: patent US20130150384A1, “METHOD FOR TREATMENT OF BRAIN CANCERS” (KOREA INSTITUTE OF SCIENCE AND TECHNOLOGY, priority 2008, published 2013)
“Also recorded” adds a separate entry of the source.

Experiments:
GBM cells = test: Ca^2+ imaging of Fura2-AM loaded GBM cells; format: cell-based, human
From the text: Error bars represent SEM.
It is hypothesized that these molecules existing in the Ca^2+ release pathway serve as a potential molecular target in controlling migration and invasion of GBM.

glioma = test: Soft agar assay (colony formation); format: cell-based, human; conditions: 0.5, 1, 2, 5, or 10 mM caffeine, 14 to 17 days
Procedure: Cells (1×10^4) were seeded into 6-well plates in a soft agar (0.3%, Difco) overlaying a 0.6% base agar. […] Cells were incubated at 37 for 14 to 17 days to allow colonies to develop. Afterward colonies were stained with 0.05% cresyl violet and photographed. […] Each assay was done in triplicate (n=3)

HEK293T cell line = test: Block against TFLLR-induced intracellular Ca^2+ release in HEK293T; format: cell-based; conditions: 10 mM caffeine, 30 μM TFLLR
U87MG cells = test: Xenograft tumor growth assay; format: in vivo, athymic mice (Balb/c nu/nu); conditions: caffeine 1 mg/ml in drinking water from day 7, subcutaneous U87MG, 4 weeks
Procedure: Five-week-old athymic mice (Balb/c nu/nu) were obtained from Central Lab. Animal Inc. (Japan). For the xenograft tumor growth assay, U87MG cells (3×10^5 cells/150 ul PBS) were injected subcutaneously into the right flanks of the mice (n=5 to 10 mice per group), and the experiment was conducted in triplicate. […] The control animals were given distilled water. Tumor mass was estimated twice per week for 4 weeks, and tumor volumes were calculated by the formula: […]

human U87MG = test: Survival in orthotropic implantation model; conditions: 1 mg/ml caffeine containing drinking water, intracranial U87MG
[1] = system: human cell line (SH-SY5Y, ATCC); test: Block against bradykinin-induced intracellular Ca^2+ release in human glioblastoma cell line; format: cell-based; conditions: 10 mM caffeine, 10 μM bradykinin

COc1ccc2c(c1)CC[C@@H]1[C@@H]2CC[C@]2(C)[C@@H](NCCCCCCN3C(=O)C=CC3=O)CC[C@@H]12 [U73122]
release of Ca^2+ from intracellular stores in response to activation of GPCRs and RTKs (GBM cells): completely inhibited

Cn1c(=O)c2c(ncn2C)n(C)c1=O [caffeine]
proliferation / anchorage-independent growth (colony numbers) (glioma): reduced the anchorage-independent growth of glioma in vitro, in a dose dependent manner; also recorded: significantly inhibited
intracellular Ca^2+ release (HEK293T cell line): blocked
increase of tumor mass (U87MG cells): significantly inhibited
survival rate (human U87MG): significantly increase the survival rate
intracellular Ca^2+ release [1]: blocked

C/C=C(/C)C(=O)O[C@H]1C(C)=C2[C@H]([C@@H]1OC(=O)CCCCCCC)[C@@](C)(OC(C)=O)C[C@H](OC(=O)CCC)[C@@]1(O)[C@H]2OC(=O)[C@@]1(C)O [thapsigargin]
subsequent increase in [Ca^2+]i by bradykinin after store depletion (GBM cells): completely inhibited
